The values below come from patent US7317003B2, “Small peptides having anti-angiogenic and endothelial cell inhibition activity” (National University of Singapore, priority 1998, dated 2008).

Where a SMILES comes first, the peptide text is derived from it.

As a reminder, the IC50 is the concentration at which inhibition is half-maximal. The low end stands for greater potency, the high end for weaker potency.

One data set deals with BAE cells. Briefly: BAE cell cytotoxicity by trypan blue staining and cellular morphology. The data set is classed as cell-based, bovine. The note with it: 20 μM, trypan blue staining and microscopic cellular morphology. The method, then:
The IC50 of the three peptides are about 2 mM, 20 nM and 200 uM respectively.

Data set [1] concerns Human hepatoma cell line HepG2. The following applies: mouse, in vivo, 15 mg/kg, 12 h. The method, then: Human hepatoma cell line HepG2 was cultured and 1 million cells were injected subcutaneously into the right back of each 6 weeks old BALB/c nude mouse. Visible tumors appear from about 2 weeks after tumor cell injection. Mice with tumors were then randomly grouped and injected with the peptide at 300 μg/mouse every 12 h (16-19 g average weight). […] Tumor sizes were measured with a caliper every three days and volumes calculated using the formula (width)^2×length×0.52. Statistical analyses were done using student t-test using the SigmaStat software (SPSS, USA). Tumors are angiogenesis dependent. To test if peptide angio-3 can inhibit tumor growth in vivo, human hepatoma HepG2 cells were injected subcutaneously into nude mice to induce tumor formation. Tumor nodules appear in about 15-18 days after tumor cell injection. Peptide was then injected at a distant site from the tumor into tumor bearing mice at 15 mg/kg every 12 h for up to a month. […] Experiments were terminated when the control group tumors started to show necrosis.

The test system of data set [2] is bovine aorta endothelial cell (BAE). The format is cell-based. The following applies: 72 h; for inhibition of BAE cell proliferation (in words): bFGF 1 ng/ml. The method, then:
The peptides were tested in an in vitro bovine aorta endothelial cell (BAE) proliferation assay for their ability to inhibit BAE cell proliferation. Cells were plated into 24-well culture plates at 1.25×10^4 cells/well in complete SFM-endothelial medium (Gibco, USA). After 24 h, the medium was removed and various amounts of peptides were added into the wells in 0.5 ml of SFM-endothelial medium without bFGF. After 30 minutes incubation, bFGF was added into each well at a final concentration of 1 ng/ml together with another 0.5 ml of SFM-endothelial medium. Seventy-two hours later, cells were trypsinized and counted using a hemocytometer. Commercial E. coli recombinant human angiostatin (1 μM) was used as a control in the experiments.
Peptides were tested in an in vitro bovine aorta endothelial cell (BAE) proliferation assay for their ability to inhibit BAE cell proliferation. Cells were plated into 24-well culture plates at the number of 1.25×10^4/well in complete SFM-endothelial media (Gibco, USA). After 24 hours, the medium was removed and various amounts of peptides were added into the wells in 0.5 ml of SFM-endothelial medium without bFGF. After 30 minutes incubation, bFGF was added into each well at a final concentration of 1 ng/ml together with another 0.5 ml of SFM-endothelial medium. Seventy-two hours later, cells were trypsinized and counted using a hemocytometer. […] The IC50 of the Endo-2, -3 and -4 peptides is estimated to be 0.4 uM, 0.3 uM and 2 uM respectively.

The subject of data set [3] is chick embryo chorioallantoic membrane (CAM). Briefly: chick embryo chorioallantoic membrane (CAM) in vivo angiogenesis assay. The note with it: for inhibition of chick CAM angiogenesis (in words): peptide on cover slip, compared to PBS control. The method, then:
Since peptides Angio-2, Angio-3 and Angio-4 all inhibited BAE cell proliferation, they were also tested in the chick embryo chorioallantoic membrane (CAM) in vivo angiogenesis assay (7). In this assay, the peptides are coated onto 2-3 mm glass squares cut from microscope cover slips. […] Peptide Angio-3 reduced microvessel density at the very low dose of 12 pg/cover slip (the lowest dose tested, comparing to a PBS control). As a positive control, recombinant angiostatin at the dose of 100 ug/cover slip was tested in the same experiment. The amount of inhibition (judging from the extent of reduction in microvessel density) from 100 ug recombinant angiostatin is equivalent to 1.2 ug of Angio-3 peptide.

For data set [4] the following is noted: 100 mg/kg/day; cited from earlier work.
Data set [5] relates to primary tumor growth and metastasis. The following applies: mice; cited from earlier work.
The test system of data set [6] is bovine aorta endothelial cell (BAE). The following applies: reported in reference 5; cited from earlier work.
The subject of data set [7] is chick embryo chorioallantoic membrane (CAM). Briefly: chick embryo chorioallantoic membrane (CAM) in vivo angiogenesis assay. The following applies: 10 day embryo, 12 ug/cover slip.

For the compound `C[C@@H](O)[C@H](N)C(=O)N1CCC[C@H]1C(=O)N[C@@H](Cc1c[nH]cn1)C(=O)N[C@H](C(=O)N[C@@H](Cc1c[nH]cn1)C(=O)N[C@@H](CC(N)=O)C(=O)N[C@@H](CCCNC(=N)N)C(=O)N[C@H](C(=O)N1CCC[C@H]1C(=O)N[C@@H](CCC(=O)O)C(=O)O)[C@@H](C)O)[C@@H](C)O` [Angio-3] (H-TPHTHNRTPE-OH), the “cell cytotoxicity with BAE cells” value in the data set with BAE cells was “No obvious cell cytotoxicity”. Besides, the “inhibition of HepG2 tumor growth” value in data set [1] is listed as “about 40%”. Further, the IC50 in data set [2] is roughly 0.02 µM.

Regarding “hFLT2-5: further N-terminal truncation of hFLT2 (KKFPL; Mammalian; hFLT2-5)”, the “inhibition of chick CAM angiogenesis (in words)” value in data set [3] is given as “non-functional peptide”.

With `CC(C)C[C@H](NC(=O)[C@@H]1CCCN1C(=O)[C@@H](NC(=O)[C@H](CC(N)=O)NC(=O)[C@H](CC(C)C)NC(=O)[C@H](C)NC(=O)[C@@H](NC(=O)[C@H](CC(C)C)NC(=O)[C@H](Cc1c[nH]cn1)NC(=O)[C@H](CC(C)C)NC(=O)[C@@H](NC(=O)[C@@H]1CCCN1C(=O)[C@@H](N)CCC(N)=O)C(C)C)C(C)C)[C@@H](C)O)C(=O)O` [Endo-2] (H-QPVLHLVALNTPL-OH; N-terminus and C-terminus assumed), in data set [2], the IC50 was roughly 0.4 µM and the “inhibition of BAE cell proliferation (in words)” value is “inhibited BAE cell proliferation in a dose-dependent manner”.

On to “fVEGF: peptide designed from Zebrafish VEGF (YPDEIEHTYIPS; Mammalian; fVEGF)”, for which, in data set [3], the “inhibition of chick CAM angiogenesis (in words)” value is on record as “dose-dependent inhibition of CAM angiogenesis”.

As for angiostatin, the toxicity in mice entry in data set [4] is “without observable toxicity”. Also, in data set [5], the “dose at which inhibition of metastasis is observed” value is “about 1 mg/kg/day” and the “dose at which inhibition of primary tumor growth is observed” value is recorded as “about 10 mg/kg/day”. In addition, the “reported IC50 range, endothelial cell proliferation” value in data set [6] is listed as “nanomolar range”.

“hFLT2-7: further N-terminal truncation of hFLT2 (TLKKFPL; Mammalian; hFLT2-7)”: the “inhibition of chick CAM angiogenesis (in words)” value in data set [3] is “non-functional peptide”.

As to “Endo-1: endostatin-derived small peptide (SPHNSYIVLPI; Mammalian; Endo-1)”, in data set [2], the “inhibition of BAE cell proliferation (in words)” value is listed as “only a slight inhibition effect at high doses”.

As to `CC[C@H](C)[C@H](NC(=O)[C@H](Cc1ccc(O)cc1)NC(=O)CNC(=O)[C@H](Cc1c[nH]cn1)NC(=O)[C@H](C)NC(=O)[C@H](Cc1c[nH]cn1)NC(=O)[C@@H]1CCCN1C(=O)[C@@H](N)CO)C(=O)N1CCC[C@H]1C(=O)N[C@@H](CO)C(=O)O` [Angio-2] (H-SPHAHGYIPS-OH; N-terminus and C-terminus assumed), in data set [7], the “inhibition of chick CAM angiogenesis (FIG. 5)” value was “Inhibition of chick CAM angiogenesis”. Moreover, in data set [3], the “inhibition of chick CAM angiogenesis (in words)” value was “inhibited chick CAM angiogenesis”. In data set [2], the IC50 is roughly 2000 µM and the “inhibition of BAE cell proliferation (in words)” value is “inhibited BAE cell proliferation in a dose-dependent manner”.

Consider `CC[C@H](C)[C@H](NC(=O)[C@@H]1CCCN1C(=O)[C@@H](N)C(C)C)C(=O)N[C@H](C(=O)N[C@@H](CC(N)=O)C(=O)N[C@@H](CC(C)C)C(=O)N[C@@H](CCCCN)C(=O)N[C@@H](CC(=O)O)C(=O)N[C@@H](CCC(=O)O)C(=O)N[C@H](C(=O)N[C@@H](CC(C)C)C(=O)N[C@@H](CO)C(=O)N1CCC[C@H]1C(=O)N[C@@H](CO)C(=O)O)C(C)C)C(C)C` [Endo-3] (H-VPIVNLKDEVLSPS-OH; N-terminus and C-terminus assumed), for which, in data set [2], the IC50 is roughly 0.3 µM and the “inhibition of BAE cell proliferation (in words)” value was “inhibited BAE cell proliferation in a dose-dependent manner”.

For the compound `CC(C)[C@H](NC(=O)[C@H](CO)NC(=O)[C@H](CCCCN)NC(=O)[C@H](CCC(N)=O)NC(=O)[C@@H]1CCCN1C(=O)[C@H](Cc1c[nH]c2ccccc12)NC(=O)[C@H](C)NC(=O)[C@@H]1CCCN1C(=O)[C@@H](N)Cc1c[nH]cn1)C(=O)N[C@@H](Cc1c[nH]c2ccccc12)C(=O)N[C@@H](Cc1c[nH]cn1)C(=O)NCC(=O)N[C@@H](CO)C(=O)N[C@@H](CC(=O)O)C(=O)N1CCC[C@H]1C(=O)N[C@@H](CO)C(=O)O` [Endo-4] (H-HPAWPQKSVWHGSDPS-OH; N-terminus and C-terminus assumed), the “inhibition of chick CAM angiogenesis (FIG. 8)” value in data set [3] (10 day embryo, 1.8 μg/coverslip) is listed as “Inhibition of chick CAM angiogenesis”. In data set [2], the IC50 is roughly 2 µM and the “inhibition of BAE cell proliferation (in words)” value is “inhibited BAE cell proliferation in a dose-dependent manner”.

On to “hFLT2: small peptide designed from Ig domain 2 of the extracellular region of FLT-1 (SPNITVTLKKFPL; Mammalian; hFLT2)”, for which, in data set [3], the “inhibition of chick CAM angiogenesis (in words)” value is reported as “very potent angiogenesis inhibition activity”.

Regarding “mVEGF: peptide designed from mammalian VEGF sequences (YPDEIEYIFKPS; Mammalian; mVEGF)”, the “inhibition of chick CAM angiogenesis (FIG. 9A-9B)” value in data set [3] (13 day embryo, various doses, 0 and 40 hours incubation) is given as “Inhibition of chick CAM angiogenesis”. Besides, in data set [3], the “inhibition of chick CAM angiogenesis (in words)” value is “dose-dependent inhibition of CAM angiogenesis”.

As to `C[C@@H](O)[C@H](N)C(=O)N1CCC[C@H]1C(=O)N[C@@H](Cc1c[nH]cn1)C(=O)N[C@@H](CCCNC(=N)N)C(=O)N[C@@H](Cc1c[nH]cn1)C(=O)N[C@@H](CCC(N)=O)C(=O)N[C@@H](CCCCN)C(=O)N[C@H](C(=O)N1CCC[C@H]1C(=O)N[C@@H](CCC(=O)O)C(=O)O)[C@@H](C)O` [Angio-4] (H-TPHRHQKTPE-OH; N-terminus and C-terminus assumed), the “inhibition of chick CAM angiogenesis (FIG. 3, 4)” value in data set [3] (4 day embryo, 120 ug/cover slip) is “Inhibition of chick CAM angiogenesis”. Besides, in data set [3], the “inhibition of chick CAM angiogenesis (in words)” value is “inhibited chick CAM angiogenesis”. For the same compound, in data set [2], the IC50 was roughly 200 µM and the “inhibition of BAE cell proliferation (in words)” value is recorded as “inhibited BAE cell proliferation in a dose-dependent manner”.
